Patent US4788181A, “5-substituted-2',3'-dideoxycytidine compounds with anti-HTLV-III activity” (priority 1986, dated 1988)
“Also recorded” adds a separate entry of the source. Read-outs that look alike come from different tables or passages of the source.

Legend:
HTLV-III/LAV [1] = assay: HTLV-III/LAV cytopathic effect assay using ATH8 cells (protective effect); assay type: cell-based, HTLV-IIIB; conditions: for protection (in words): 200 micromolar; for protective / anti-HTLV-III activity (in words): in vitro; for doses required for protection (in words): relative to other dideoxy nucleosides / ddC 1
Protocol: ^a The percentage of protective effect of a nucleoside was determined
by the following formula:
100 × [(number of viable cells exposed to HTLVIII and cultured in
the presence of the nucleoside) - (number of viable cells exposed to
HTLVII I cultured in the absence of the nucleoside)]/[(number of viable
cells cultured alone) - (number of viable cells exposed to HTLVIII in the
absence of the nucleoside)].
(§1) HTLV-III/LAV cytopathic effect assay was performed using ATH8 cells as previously described.* Briefly, 2×10^5 ATH8 cells were exposed to HTLV-IIIB virus (2,000 virus particles/cell) for 45 min after treatment with polybrene, resuspended in 2 ml of culture medium containing interleukin 2 in the presence or absence of various concentrations of compounds, and incubated in culture tubes at 37° C. in 5% CO2 /95% air humidifedd atmosphere. Control cells were treated similarly but were not exposed to the virus. At various time points on days 5 to 7 of culture, the total viable cells were counted in a hemocytometer by the trypan blue dye exclusion method.

[2] = Cytotoxicity to ATH8 cells cultured with the nucleoside (trypan blue viable cell count); assay type: cell-based; conditions: human
Protocol: (§2) ^b The percentage of cytotoxicity was determined by the following
(§3) 100 × [1 - (number of viable cells cultured in the presence of the
(§4) nucleoside)/(number of viable cells cultured alone)].
as §1

ATH8 cells = assay: as above; assay type: cell-based; conditions: in vitro
Protocol: as §2, §3, §4, §1

[3] = water or body fluids; listed as ddA; cited from earlier work
HTLV-III/LAV [4] = conditions: in vitro, cited from earlier work
reverse transcriptase = conditions: cited from earlier work
mouse fibroblasts = conditions: Cancer Research, 1975, 35, 1547-1554; cited from earlier work
Basicity and protonation = assay type: physicochemical; conditions: relative to 2',3'-dideoxycytidine
[5] = Penetration of the blood-brain barrier / entry into the central nervous system
HTLV-III/LAV [6] = conditions: cited from earlier work
T4^+ lymphocytes = conditions: 0.5 and 5.0 micromoles; cited from earlier work
[7] = 10 μM, ATH8 cells, read-out: Cytotoxicity (%)
[8] = 50 μM, ATH8 cells, read-out: Cytotoxicity (%)
[9] = 200 μM, ATH8 cells, read-out: Cytotoxicity (%)
[10] = 0.5 μM, ATH8 cells, read-out: Cytotoxicity (%)
[11] = 5 μM, ATH8 cells, read-out: Cytotoxicity (%)

Cc1cn([C@H]2CC[C@@H](COP(=O)(O)O)O2)c(=O)[nH]c1=O [Compound 26]
protection (in words) (HTLV-III/LAV [1]): essentially inactive
cytotoxicity at 10 µM ([2]; ath8 cells): 9%
cytotoxicity at 50 µM ([2]; ath8 cells): 9%
cytotoxicity at 200 µM ([2]; ath8 cells): 10%

Cc1cn([C@H]2C[C@H](O)[C@@H](CO)O2)c(=O)nc1N [Compound 16, 5-methyl-2'-deoxycytidine]
protective / anti-HTLV-III activity (in words) (HTLV-III/LAV [1]): neither protective nor cytotoxic
cytotoxicity (in words) (ATH8 cells): neither protective nor cytotoxic

Cc1cn([C@H]2CC[C@@H](CO)O2)c(=O)[nH]c1=O [Compound 3, dideoxythymidine]
protection (in words) (HTLV-III/LAV [1]): considerable protection
inhibition at 10 µM (HTLV-III/LAV [1]; Human immunodeficiency virus 1, ATH-8, 10 μM, ATH8 cells, days 5 to 7): 3%
doses required for protection (in words) (HTLV-III/LAV [1]): unusually high doses
cytotoxicity at 10 µM [2, 7]: 8%
cytotoxicity at 50 µM [2, 8]: 8%
cytotoxicity at 100 µM ([2]; ATH8 cells): 13%
cytotoxicity at 200 µM [2, 9]: 6%
cytotoxicity at 500 µM ([2]; 500 μM, ATH8 cells): 30%
cytotoxicity at 1000 µM ([2]; 1000 μM, ATH8 cells): 40%
cytotoxicity at 2000 µM ([2]; 2000 μM, ATH8 cells): 53%

Nc1ccn([C@H]2CC[C@@H](COP(=O)(O)O)O2)c(=O)n1 [Compound 24]
doses required for protection (in words) (HTLV-III/LAV [1]): significant protection was beginning to be observed at doses approximately ten times higher than were required for activity with ddC 1
cytotoxicity at 0.5 µM [2, 10]: 0%
cytotoxicity at 2 µM ([2]; ATH8 cells): 7%
cytotoxicity at 10 µM [2, 7]: 0%

Nc1nc(=O)n([C@H]2CC[C@@H](CO)O2)cc1Br [Compound 17, 2',3'-Dideoxy-5-bromocytidine]
protective / anti-HTLV-III activity (in words) (HTLV-III/LAV [1]): neither protective nor cytotoxic
cytotoxicity at 1 µM ([2]; ATH8 cells): 14%
cytotoxicity at 10 µM [2, 7]: 14%
cytotoxicity at 30 µM ([2]; 30 μM, ATH8 cells): 2%
cytotoxicity at 200 µM [2, 9]: 0%
cytotoxicity (in words) (ATH8 cells): neither protective nor cytotoxic

Nc1ncnc2c1ncn2[C@H]1CC[C@@H](CO)O1 [Compound 2]
solubility (in words) [3]: relatively insoluble; also recorded: not very soluble in water or body fluids
cytotoxicity at 1 µM ([2]; ATH8 cells): 0%
cytotoxicity at 5 µM [2, 11]: 6%
cytotoxicity at 10 µM [2, 7]: 0%
cytotoxicity at 50 µM [2, 8]: 0%
cytotoxicity at 100 µM ([2]; ATH8 cells): 0%
cytotoxicity at 200 µM [2, 9]: 0%
protection against the cytopathic effects of HTLV-III/LAV (in words) (HTLV-III/LAV [4]): very effective

Cc1ccc(C(=O)Nc2ccc(S(=O)(=O)O)c3cc(S(=O)(=O)O)cc(S(=O)(=O)O)c23)cc1NC(=O)c1cccc(NC(=O)Nc2cccc(C(=O)Nc3cc(C(=O)Nc4ccc(S(=O)(=O)O)c5cc(S(=O)(=O)O)cc(S(=O)(=O)O)c45)ccc3C)c2)c1 [suramin]
inhibition of reverse transcriptase (in words) (reverse transcriptase): inhibit this enzyme

Cc1cn([C@H]2CC[C@@H](CO)O2)c(=O)nc1N [Compound 15, 2',3'-Dideoxy-5-methylcytidine]
protective / anti-HTLV-III activity (in words) (HTLV-III/LAV [1]): devoid of protective effects
MCC ([2]; ath8 cells, read-out: concentration at which toxicity began to show): 100 µM
cytotoxicity at 2 µM ([2]; ATH8 cells): 23%
cytotoxicity at 10 µM [2, 7]: 27%
cytotoxicity at 100 µM ([2]; ATH8 cells): 44%

O=C(O)P(=O)(O)O [foscarnet]
inhibition of reverse transcriptase (in words) (reverse transcriptase): inhibit this enzyme

NC(=O)c1ncn([C@@H]2O[C@H](CO)[C@@H](O)[C@H]2O)n1 [ribavirin]
inhibition of reverse transcriptase (in words) (reverse transcriptase): inhibit this enzyme

Nc1ncnc2c1ncn2[C@H]1CC[C@@H](COP(=O)(O)O)O1 [Compound 25, 2',3'-dideoxyadenosine-5'-phosphate]
inhibition at 1 µM (HTLV-III/LAV [1]; Human immunodeficiency virus 1, ATH-8, 1 μM, ATH8 cells, days 5 to 7): 25%
protective / anti-HTLV-III activity (in words) (HTLV-III/LAV [1]): just as active as the nucleoside 2, over a wide concentration range
potency of ddAMP relative to ddA (in words) (HTLV-III/LAV [1]; low concentrations): not more potent at low concentrations
cytotoxicity at 1 µM ([2]; ATH8 cells): 2%
cytotoxicity at 5 µM [2, 11]: 10%
cytotoxicity at 10 µM [2, 7]: 6%
cytotoxicity at 50 µM [2, 8]: 4%
cytotoxicity at 100 µM ([2]; ATH8 cells): 0%
cytotoxicity at 200 µM [2, 9]: 5%
cytotoxicity in mouse fibroblasts (in words) (mouse fibroblasts): cytotoxic consequences
entry into mouse fibroblasts (mouse fibroblasts): appeared to enter mouse fibroblasts intact

Nc1nc(=O)n([C@H]2CC[C@@H](CO)O2)cc1F [Compound 22, 2',3'-Dideoxy-5-fluorocytidine]
inhibition at 0.05 µM (HTLV-III/LAV [1]; Human immunodeficiency virus 1, ATH-8, 0.05 μM, ATH8 cells, days 5 to 7): 5%
protective / anti-HTLV-III activity (in words) (HTLV-III/LAV [1]): as protective of HTLV-III infected cells as the lead compound 1
basicity (Basicity and protonation): less basic than the parent compound
protonation (Basicity and protonation): less protonated than the parent compound
cytotoxicity at 0.05 µM ([2]; 0.05 μM, ATH8 cells, read-out: Cytotoxicity (%)): 5%
cytotoxicity at 0.5 µM [2, 10]: 0%
cytotoxicity at 5 µM [2, 11]: 0%
cytotoxicity at 50 µM [2, 8]: 9%
penetration of the blood-brain barrier / entry into the central nervous system [5]: penetrate the blood-brain barrier

Cc1cn([C@H]2C[C@H](N=[N+]=[N-])[C@@H](CO)O2)c(=O)[nH]c1=O [AZT, 3-azido-3'-deoxythymidine]
activity in test systems (in words) (HTLV-III/LAV [6]): a compound with activity in test systems

Nc1ccn([C@H]2CC[C@@H](CO)O2)c(=O)n1 [Compound 1, 2',3'-dideoxycytidine]
cytotoxicity (in words) (T4^+ lymphocytes): non-cytotoxic
cytotoxicity at 0.05 µM ([2]; ath8 cells): 0%
cytotoxicity at 0.5 µM ([2]; ath8 cells): 0%
cytotoxicity at 5 µM ([2]; ath8 cells): 0%
cytotoxicity at 50 µM ([2]; ath8 cells): 30%
protection against the cytopathic effects of HTLV-III/LAV (in words) (HTLV-III/LAV [4]): most potent member of the group on the basis of molarity
protection against the cytopathic effects of HTLV-III/LAV (in words) (HTLV-III/LAV [4]; listed as ddC): potent protective agent; also recorded: very effective
penetration of the blood-brain barrier / entry into the central nervous system [5]: enter the central nervous system, very poorly

Nc1ncn([C@H]2CC[C@@H](CO)O2)c(=O)n1 [Compound 10, 2',3'-Dideoxy-5-azacytidine]
anti-HTLV-III activity (in words) (HTLV-III/LAV [1]; 10 micromolar): significant anti-HTLV-III activity
cytotoxicity at 1 µM ([2]; ATH8 cells): 13%
cytotoxicity at 10 µM [2, 7]: 19%
cytotoxicity at 50 µM [2, 8]: 62%
cytotoxicity (in words) (ATH8 cells): clearly more cytotoxic than ddC
